Measured values taken from US10774064B2 (Cadent Therapeutics, Inc., priority 2016, dated 2020).

molecular target: T1, small-conductance Ca2+-activated K+ channels (SK channels, subtype 2) (Homo sapiens, UniProt Q9H2S1); assay: whole-cell patch-clamp of ionic current through SK2 channels in HEK293 cells (SC100); format: cell-based; details: whole-cell patch-clamp, HEK293 cells expressing SK2 channels; concentration that increases the basal current by 100%
T1 construct: expressed in transfected cells; host or cells: HEK293
Outline: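 SC100, the concentration doubling basal current (a 100% increase), was taken from SK2 currents recorded by whole-cell patch-clamp in SK2-expressing HEK293 cells.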

SC100 (μM) | Structure (SMILES)
++ (++ means 200 nM-1000 nM) | CCC1CN(c2cc(NC3CCC(F)(F)CC3)nc(-c3nc(C)cs3)n2)CCO1 (centres unmarked) [IN10880-018-P1]
+ (+ means >1 uM) | Cc1csc(-c2nc(C#N)cc(NC3CCC(F)(F)CC3)n2)n1 [IN10880-029-P1]
++ (++ means 200 nM-1000 nM) | CC(=O)NC1CCN(c2cc(NC3CCC(F)(F)CC3)nc(-c3nc(C)cs3)n2)CC1 [IN10880-032-P1]
++ (++ means 200 nM-1000 nM) | Cc1csc(-c2nc(NC3CCC(F)(F)CC3)cc(N3CCOC(CNC(=O)OC(C)(C)C)C3)n2)n1 (centres unmarked) [IN10880-033-P1]
++ (++ means 200 nM-1000 nM) | Cc1csc(-c2nc(NC3CCC(F)(F)CC3)cc(C(C)O)n2)n1 (centres unmarked) [IN10880-035-P1, 1-(6-((4,4-difluorocyclohexyl)amino)-2-(4-methylthiazol-2-yl)pyrimidin-4-yl) ethan-1-ol]
+ (+ means >1 uM) | Cc1ccn(-c2nc(NCC3CCCO3)cc(C(C)O)n2)n1 (centres unmarked) [IN10880-055-P1]
+ (+ means >1 uM) | Cc1ccn(-c2nc(NC(C)C)cc(C(C)O)n2)n1 (centres unmarked) [IN10880-056-P1]
+ (+ means >1 uM) | Cc1ccn(-c2nc(NCC3CCOC3)cc(C(C)O)n2)n1 (centres unmarked) [IN10880-058-P1]
+ (+ means >1 uM) | Cc1ccn(-c2nc(NC3CCCCC3C)cc(C(C)O)n2)n1 (centres unmarked) [IN10880-059-P1]
+ (+ means >1 uM) | Cc1ccn(-c2nc(NC3CCCC(C(F)(F)F)C3)cc(C(C)O)n2)n1 (centres unmarked) [IN10880-062-P1]
+ (+ means >1 uM) | Cc1ccn(-c2nc(C(C)O)cc(N(C)C3CCCCC3)n2)n1 (centres unmarked) [IN10880-064-P1]
+ (+ means >1 uM) | Cc1ccn(-c2nc(NC(C)(C)C)cc(C(C)O)n2)n1 (centres unmarked) [IN10880-065-P1]
+ (+ means >1 uM) | Cc1csc(-c2nc(C(C)O)cc(N(C)C3CCCCC3)n2)n1 (centres unmarked) [IN10880-084-P1]
+ (+ means >1 uM) | Cc1csc(-c2nc(NC3CCCC(C(F)(F)F)C3)cc(C(C)O)n2)n1 (centres unmarked) [IN10880-085-P1]
++ (++ means 200 nM-1000 nM) | Cc1csc(-c2nc(NC3CCCCC3)cc(C(C)O)n2)n1 (centres unmarked) [IN10880-093-P1]
+++ (+++ means <200 nM) | Cc1csc(-c2nc(NC3CCC(F)(F)CC3)cc(N3CCC(N(C)C)CC3)n2)n1 [IN10881-020.P1]
++ (++ means 200 nM-1000 nM) | Cc1csc(-c2nc(NC3CCC(F)(F)CC3)cc(N3CCCCC3)n2)n1 [IN10881-021.P1]
++ (++ means 200 nM-1000 nM) | Cc1csc(-c2nc(NC3CCC(F)(F)CC3)cc(N3CCCC(O)C3)n2)n1 (centres unmarked) [IN10881-023-P2]
++ (++ means 200 nM-1000 nM) | Cc1csc(-c2nc(NC3CCC(F)(F)CC3)cc(N3CCOC(CO)C3)n2)n1 (centres unmarked) [IN10881-025-P1]

SC100 (μM) | Structure (SMILES)
++ (++ means 200 nM-1000 nM) | Cc1csc(-c2nc(NC3CCC(F)(F)CC3)cc(N3CCOCC3CO)n2)n1 (centres unmarked) [IN10881-027-P1]
+ (+ means >1 uM) | CC(=O)c1cc(NC2CCC(F)(F)CC2)nc(-n2nc(C)cc2C)n1 [IN10881-040-P1, 1-(6-((4,4-difluorocyclohexyl)amino)-2-(3,5-dimethyl-1H-pyrazol-1-yl)pyrimidin-4-yl)ethan-1-one]
+ (+ means >1 uM) | Cc1ccn(-c2nc(C(C)O)cc(N3CCCC4CCCCC43)n2)n1 (centres unmarked) [IN10881-054-P1]
+ (+ means >1 uM) | Cc1ccn(-c2nc(C(C)O)cc(N3CCCCCC3)n2)n1 (centres unmarked) [IN10881-058-P1]
+ (+ means >1 uM) | Cc1ccn(-c2nc(C(C)O)cc(N(C)C3CCCCC3C)n2)n1 (centres unmarked) [IN10881-059-P1]
+ (+ means >1 uM) | Cc1ccn(-c2nc(NC3C(C)CCCC3C)cc(C(C)O)n2)n1 (centres unmarked) [IN10881-060-P1]
+ (+ means >1 uM) | Cc1csc(-c2nc(NC3CCC(F)(F)CC3)cc(N(C)C3CC3)n2)n1 [IN10881-090-P1]
+++ (+++ means <200 nM) | CCN(CC)CC1CN(c2cc(NC3CCC(F)(F)CC3)nc(-c3nc(C)cs3)n2)CCO1 (centres unmarked) [IN10881-092-P1]
+ (+ means >1 uM) | Cc1cc(C)n(-c2nc(NC3CCC(F)(F)CC3)nc(N3CCOCC3)n2)n1 [IN10881-098-P1, N-(4,4-difluorocyclohexyl)-4-(3,5-dimethyl-1H-pyrazol-1-yl)-6-morpholino-1,3,5-triazin-2-amine]
+ (+ means >1 uM) | COCC1COCCN1c1cc(NC2CCC(F)(F)CC2)nc(-c2nc(C)cs2)n1 (centres unmarked) [IN10881-099-P1]
+ (+ means >1 uM) | Cc1csc(-c2nc(NC3CCC(F)(F)CC3)cc(N3CCCC3)n2)n1 [IN10882-014-P1]
++ (++ means 200 nM-1000 nM) | Cc1csc(-c2nc(NC3CCC(F)(F)CC3)cc(N3CCC(CO)C3)n2)n1 (centres unmarked) [IN10882-020-P1]
+ (+ means >1 uM) | Cc1csc(-c2nc(NC3CCC(F)(F)CC3)cc(NC3COC3)n2)n1 [IN10882-040-P1]
+ (+ means >1 uM) | Cc1csc(-c2nc(NC3CCC(F)(F)CC3)cc(N(C)C3COC3)n2)n1 [IN10882-043-P1]
+ (+ means >1 uM) | Cc1ccn(-c2nc(C(C)O)cc(N3CCCCC3)n2)n1 (centres unmarked) [IN10882-055-P1]
+ (+ means >1 uM) | Cc1ccn(-c2nc(NC(C)C)cc(N3CCOC(CO)C3)n2)n1 (centres unmarked) [IN10882-057-P1]
+ (+ means >1 uM) | Cc1ccn(-c2nc(N3CCCCCC3)cc(N3CCOC(CO)C3)n2)n1 (centres unmarked) [IN10882-068-P1]
+ (+ means >1 uM) | Cc1ccn(-c2nc(N3CCCCC3)cc(N3CCOC(CO)C3)n2)n1 (centres unmarked) [IN10882-072-P1, (4-(2-(3-methyl-1H-pyrazol-1-yl)-6-(piperidin-1-yl)pyrimidin-4-yl)morpholin-2-yl) methanol]
+ (+ means >1 uM) | Cc1ccn(-c2nc(NC(C)(C)C)cc(N3CCOC(CO)C3)n2)n1 (centres unmarked) [IN10882-083-P1]

SC100 (μM) | Structure (SMILES)
+ (+ means >1 uM) | Cc1cc(C)n(-c2cc(NC3CCC(F)(F)CC3)cc(N3CCOCC3)c2)n1 [IN10963-024-P1, N-(4,4-difluorocyclohexyl)-3-(3,5-dimethyl-1H-pyrazol-1-yl)-5-morpholinoaniline]
++ (++ means 200 nM-1000 nM) | Cc1cc(C)n(-c2nc(NC3CCC(F)CC3)cc(N3CCOCC3)n2)n1 (centres unmarked) [IN10963-049-P1]
+ (+ means >1 uM) | Cc1cc(C)n(-c2nc(NC3CCC(F)(F)CC3)cc(C(C)OC(C)C)n2)n1 (centres unmarked) [IN10963-068-P1, N-(4,4-difluorocyclohexyl)-2-(3,5-dimethyl-1H-pyrazol-1-yl)-6-(1-isopropoxyethyl)pyrimidin-4-amine]
+ (+ means >1 uM) | Cc1cc(C)n(-c2nc(CCO)cc(NC3CCC(F)(F)CC3)n2)n1 [IN10963-077-P1, 2-(6-((4,4-difluorocyclohexyl)amino)-2-(3,5-dimethyl-1H-pyrazol-1-yl)pyrimidin-4-yl) ethan-1-ol]
+++ (+++ means <200 nM) | Cc1csc(-c2nc(NC3CCC(F)(F)CC3)cc(N3CCOC(COC(C)C)C3)n2)n1 (centres unmarked) [IN10964-007-P1]
++ (++ means 200 nM-1000 nM) | Cc1cc(C)n(-c2nc(NC3CCC(F)(F)CC3)cc(N3CCOC(COC(C)C)C3)n2)n1 (centres unmarked) [IN10964-008-P1]
+ (+ means >1 uM) | Cc1cc(C)n(-c2nc(NC3CCC(F)(F)CC3)cc(C(C)N(C)C)n2)n1 (centres unmarked) [IN10964-046-P1, N-(4,4-difluorocyclohexyl)-2-(3,5-dimethyl-1H-pyrazol-1-yl)-6-(1-(dimethylamino)ethyl)pyrimidin-4-amine]
++ (++ means 200 nM-1000 nM) | Cc1cc(C)n(-c2nc(NC3CCC(F)(F)CC3)cc(N3CCOCC3COC(C)C)n2)n1 (centres unmarked) [IN10965-089-P1]
+ (+ means >1 uM) | Cc1csc(-c2nc(NC3CCC(F)(F)CC3)cc(N3CCOCC3COC(C)C)n2)n1 (centres unmarked) [IN10965-091-P1, N-(4,4-difluorocyclohexyl)-6-(3-(isopropoxymethyl)morpholino)-2-(4-methylthiazol-2-yl)pyrimidin-4-amine]
+ (+ means >1 uM) | Cc1cc(C)n(-c2ncc(N3CCOCC3)c(NC3CCC(F)(F)CC3)n2)n1 [IN10966-011-P1, N-(4,4-difluorocyclohexyl)-2-(3,5-dimethyl-1H-pyrazol-1-yl)-5-morpholinopyrimidin-4-amine]
++ (++ means 200 nM-1000 nM) | Cc1csc(-c2nc(NC3CCCC(F)(F)C3)cc(N3CCOCC3)n2)n1 (centres unmarked) [IN10966-028-P1]
++ (++ means 200 nM-1000 nM) | Cc1cc(NC2CC=C(F)CC2)nc(-c2nc(C)cs2)n1 (centres unmarked) [IN10966-057-P2, N-(4-fluorocyclohex-3-en-1-yl)-6-methyl-2-(4-methylthiazol-2-yl)pyrimidin-4-amine]
+ (+ means >1 uM) | Cc1cc(C)n(-c2cc(C)c(NC3CCC(F)(F)CC3)nn2)n1 [IN10966-083-P1, N-(4,4-difluorocyclohexyl)-6-(3,5-dimethyl-1H-pyrazol-1-yl)-4-methylpyridazin-3-amine]
+ (+ means >1 uM) | COCCOc1cc(NC2CCC(F)(F)CC2)nc(-n2ccc(C)n2)n1 [IN10966-093-P1]
+ (+ means >1 uM) | Cc1ccn(-c2nc(NC3CCC(F)(F)CC3)cc(OCCN(C)C)n2)n1 [IN10966-095-P1]
+ (+ means >1 uM) | Cc1ccnn1-c1cc(C#N)cc(NC2CCC(F)(F)CC2)n1 [IN10967-061-P1, 2-((4,4-difluorocyclohexyl)amino)-6-(5-methyl-1H-pyrazol-1-yl)isonicotinonitrile]
++ (++ means 200 nM-1000 nM) | Cc1ccn(-c2cc(CN)cc(NC3CCC(F)(F)CC3)n2)n1 [IN10967-063-P1, 4-(aminomethyl)-N-(4,4-difluorocyclohexyl)-6-(3-methyl-1H-pyrazol-1-yl)pyridin-2-amine]
+ (+ means >1 uM) | Cc1csc(-c2nc(NC3CCC(F)(F)CC3)cc(C(O)c3ccccc3)n2)n1 (centres unmarked) [IN10971-033-P1, (6-((4,4-difluorocyclohexyl)amino)-2-(4-methylthiazol-2-yl)pyrimidin-4-yl) (phenyl) methanol]
